Source: patent publication US20150087722A1, “TREATMENT FOR BREAST TUMOR CELL METASTASIS” (China Medical University, priority 2012, published 2015)

Key:
Assay type in all cases: cell-based, human
[1] = tested on: ROS content in breast tumor cells MDA-MB-453; test: reactive oxygen species method; conditions: 40 μM
Method: In FIG. 12, the reactive oxygen species method was used to detect the effect of increased treatment doses of the compound II on the ROS content in breast tumor cells, and a photograph was taken at a 200× field under the fluorescence microscope. In the intracellular reactive oxygen species method, the cells were planted in a 24-well plate (5×10^4 cells/well). The next day after the cells were adhered to the wall, the cells were cultured in a serum free DMEM culture medium at an atmosphere of 5% CO2 in an incubator at 37° C. for 12 h. The compound II was added into the 1% FBS-DMEM culture medium, and the cells were cultured in the culture medium for 2 h. The cells were then washed with PBS. 100 ng/mL LPS was added to react with the cells, and then the cells were washed with PBS. […] The absorbance was measured by a fluorescence spectrometer, where the excitation wavelength was set as 485±20 nm, and the […] was set as 530±25 nm. […] Thus in the following the cells were treated with 40 μM the compound II and then the ROS content of cells was detected. […] FIG. 23 is a quantitative diagram showing the effect of increasing treatment time on the ROS content of breast tumor cells when the reactive oxygen species method was performed to detect the breast tumor cells treated with 40 μM the compound II. […]

[2] = tested on: ROS content in breast tumor cells MDA-MB-231; test: intracellular reactive oxygen species method
Method: In FIG. 12, the reactive oxygen species method was used to detect the effect of increased treatment doses of the compound II on the ROS content in breast tumor cells, and a photograph was taken at a 200× field under the fluorescence microscope. In the intracellular reactive oxygen species method, the cells were planted in a 24-well plate (5×10^4 cells/well). The next day after the cells were adhered to the wall, the cells were cultured in a serum free DMEM culture medium at an atmosphere of 5% CO2 in an incubator at 37° C. for 12 h. The compound II was added into the 1% FBS-DMEM culture medium, and the cells were cultured in the culture medium for 2 h. The cells were then washed with PBS. 100 ng/mL LPS was added to react with the cells, and then the cells were washed with PBS. Culture medium including 10 μM fluorescent probe (DCFH2-DA) was supplied and then the cells were cultured for 30 min at 37° C. The cells were washed with PBS for three times so as to remove the residual stain. Finally the cells were lysed using 0.25% Tritox-100. The absorbance was measured by a fluorescence spectrometer, where the excitation wavelength was set as 485±20 nm, and the […] was set as 530±25 nm.

[3] = tested on: EMT-related proteins in breast tumor cells MDA-MB-231; test: western blotting of EMT-related proteins; conditions: MDA-MB-231, 0.5, 1 and 2 μM, 24 h, with dose increasing
Method: FIG. 2A illustrates the expression results of EMT-related proteins in breast tumor cells MDA-MB-231 after the breast tumor cells MDA-MB-231 have been respectively cultured under compound II having concentrations of 0, 0.5, 1 and 2 μM for 24 h; and FIG. 2B illustrates the expression results of EMT-related proteins in breast tumor cells MCF-7 after the breast tumor cells MCF-7 have been respectively cultured under the compound II having concentrations of 0, 10, 15 and 20 μM for 24 h. FIG. 3A illustrates the western blotting results of EMT-related proteins in the breast tumor cells MDA-MB-468, where the breast tumor cells MDA-MB-468 are treated with the compound I having concentrations of 0, 0.5, 1 and 2 μM for 24 h, and FIG. 3B illustrates the western blotting results of EMT-related proteins in the breast tumor cells MDA-MB-435, where the breast tumor cells MDA-MB-435 are treated with the compound I having concentrations of 0, 2.5, 5 and 7.5 μM for 24 h. […] Then luminescence image equipment was used, where the PVDF was placed onto a black metal plate by a plastic pincer and the face including protein was upwards, a 1:1 mixed Chemiluminesent Substrate was added into the membrane and the exposure time depends on the fluorescence intensity of antibodies. […]

Structure (SMILES): COC1=C(OC)C(=O)C(C)=C(C)C1=O [compound II]
- content of oxygen species compared with the control group [1]: higher
- increasing trend of reactive oxygen species ([2]; MDA-MB-231, with antioxidant NAC added at the same time): not obvious
- content of reactive oxygen species ([2]; MDA-MB-231, with increasing treatment doses): increased accordingly
- expression amount of E-cadherin, occludin and ICAM [3]: increased
- expression amount of proteins facilitating tumor cell proliferation (Twist, Snail, vimentin, β-catenin, VEGF) [3]: decreased
